Data as given in ChEMBL document CHEMBL1201862, “PubChem BioAssay data set” (2004).
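A five-concentration, 48-hour dose response in 96-well plates underlies each endpoint, interpolated linearly between surrounding concentrations. The concentration for 50% growth inhibition is given as GI50.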 The source made the active and inactive calls. Cut-off read from the data, not from the text of the source: active = GI50 up to about 1.1 µM and inactive = higher.

What was measured:
Assay in all cases: inhibition of tumour cell growth, NCI panel, 48 h
[1] = system: HCC 2998
[2] = system: UO-31
[3] = system: UACC-62
[4] = system: K562
[5] = system: SK-OV-3
[6] = system: SW-620
[7] = system: SF-295
[8] = system: HCT-116
[9] = system: HL-60
[10] = system: 786-0
[11] = system: OVCAR-3
[12] = system: MOLT-4
[13] = system: SNB-19
[14] = system: RXF 393
[15] = system: MDA-N
[16] = system: CCRF-CEM
[17] = system: OVCAR-4
[18] = system: RPMI-8226
[19] = system: NCI-H226
[20] = system: A498

Measured: GI50

NCCCc1nonc1C(=O)O
inactive: [1] > 100 µM | [2] > 100 µM | [3] > 100 µM | [4] > 100 µM | [5] > 100 µM | [6] > 100 µM | [7] > 100 µM | [8] > 100 µM | [9] > 100 µM | [10] > 100 µM | [11] > 100 µM | [12] > 100 µM | [13] > 100 µM | [14] > 100 µM | [15] > 100 µM | [16] > 100 µM | [17] > 100 µM | [18] > 100 µM | [19] > 100 µM

CC[C@@H]1C[C@@H](O)[C@@H]2[C@H](O)[C@H](O)CN2C1
inactive: [1] > 100 µM | [2] > 100 µM | [3] > 100 µM | [4] > 100 µM | [5] > 100 µM | [6] > 100 µM | [7] > 100 µM | [20] > 100 µM | [8] > 100 µM | [9] > 100 µM | [10] > 100 µM | [11] > 100 µM | [12] > 100 µM | [13] > 100 µM | [15] > 100 µM | [16] > 100 µM | [17] > 100 µM | [18] > 100 µM | [19] > 100 µM

COC(=O)C1CCC(=O)N1CN(C(C)=O)c1ccccc1 (stereo unspecified)
inactive: [2] > 100 µM | [3] > 100 µM | [4] > 100 µM | [5] > 100 µM | [6] > 100 µM | [7] > 100 µM | [20] > 100 µM | [8] > 100 µM | [9] > 100 µM | [10] > 100 µM | [11] > 100 µM | [12] > 100 µM | [13] > 100 µM | [15] > 100 µM | [16] > 100 µM | [17] > 100 µM | [18] > 100 µM | [19] > 100 µM

COC(=O)CCCC(=O)NC1=C(Nc2ccc(OC)cc2)C(=O)c2ccccc2C1=O
inactive: [1] 20.6 µM | [2] 46.2 µM | [3] 12.8 µM | [4] 23.9 µM | [5] 34.1 µM | [6] 40.7 µM | [7] 30.4 µM | [20] 20.7 µM | [8] 19.7 µM | [9] 21.7 µM | [10] 34.6 µM | [11] 6.25 µM | [12] 24.8 µM | [13] 42.7 µM | [15] 20.7 µM | [16] 20.8 µM | [17] 17.8 µM | [18] 26.4 µM

CC(=O)C1C(=O)C(=O)N(c2cccc([N+](=O)[O-])c2)C1=O (stereo unspecified)
inactive: [1] > 100 µM | [2] > 100 µM | [3] > 100 µM | [5] > 100 µM | [6] > 100 µM | [7] > 100 µM | [8] > 100 µM | [9] > 100 µM | [10] > 100 µM | [11] > 100 µM | [12] > 100 µM | [13] > 100 µM | [14] > 100 µM | [15] > 100 µM | [16] > 100 µM | [17] > 100 µM | [19] > 100 µM

Cc1nc(=O)[nH]c2s/c(=N/C3CCCCC3)n(C3CCCCC3)c(=O)c12
inactive: [1] > 100 µM | [2] > 100 µM | [3] > 100 µM | [4] > 100 µM | [5] > 100 µM | [6] > 100 µM | [7] > 100 µM | [20] > 100 µM | [8] > 100 µM | [9] > 100 µM | [10] > 100 µM | [11] > 100 µM | [12] > 100 µM | [13] > 100 µM | [15] > 100 µM | [16] > 100 µM | [17] > 100 µM | [18] > 100 µM | [19] > 100 µM

Cn1c(=O)c2nc(Nc3ccccc3)[nH]c2n(C)c1=O
inactive: [1] > 10 µM | [3] > 10 µM | [4] > 10 µM | [5] > 10 µM | [6] > 10 µM | [7] > 10 µM | [9] > 10 µM | [10] > 10 µM | [12] > 10 µM | [14] > 10 µM | [15] > 10 µM | [16] > 10 µM | [17] > 10 µM | [18] > 10 µM

O=c1c2cc(S(=O)(=O)Nc3ccccc3Cl)ccc2ncn1NS(=O)(=O)c1ccc(Br)cc1
inactive: [1] > 37.5 µM | [2] > 37.5 µM | [3] > 37.5 µM | [4] 17.8 µM | [5] > 37.5 µM | [6] > 37.5 µM | [7] > 37.5 µM | [8] > 37.5 µM | [9] > 37.5 µM | [10] > 37.5 µM | [11] > 37.5 µM | [12] > 37.5 µM | [13] > 37.5 µM | [15] > 37.5 µM | [16] > 37.5 µM | [17] > 37.5 µM | [18] > 37.5 µM | [19] > 37.5 µM

Cc1ccc(C(=O)N/N=C(\N=N\c2ccccc2)c2ccc(N(C)C)cc2)cc1
inactive: [1] 90.8 µM | [2] > 100 µM | [3] 67.8 µM | [4] 52.2 µM | [5] > 100 µM | [6] > 100 µM | [7] > 100 µM | [8] > 100 µM | [9] > 100 µM | [10] 68.2 µM | [11] > 100 µM | [12] > 100 µM | [13] 80.4 µM | [15] 29.4 µM | [16] > 100 µM | [17] 16.3 µM | [18] > 100 µM | [19] > 100 µM

CCC(=O)C(C(C)/C=C/CCSc1ccccc1)C(O)CCCCCC(=O)OC (stereo unspecified)
inactive: [1] > 100 µM | [2] > 100 µM | [3] 71.9 µM | [4] 46.3 µM | [5] > 100 µM | [6] > 100 µM | [7] > 100 µM | [8] > 100 µM | [10] > 100 µM | [11] > 100 µM | [12] 27.1 µM | [13] > 100 µM | [14] > 100 µM | [15] > 100 µM | [16] 38.6 µM | [17] > 100 µM | [18] > 100 µM | [19] > 100 µM

CC(=O)N1C(C(=O)NNc2ccccc2)CSC1c1ccccc1 (stereo unspecified)
inactive: [1] 23 µM | [2] 70.8 µM | [3] 1.39 µM | [4] 3.42 µM | [5] > 100 µM | [6] > 100 µM | [7] > 100 µM | [20] > 100 µM | [8] > 100 µM | [10] > 100 µM | [11] 58.2 µM | [12] 4 µM | [13] > 100 µM | [15] > 100 µM | [16] 77.3 µM | [17] > 100 µM | [18] 37.8 µM | [19] > 100 µM
